Measurements reported in patent publication US20230265432A1, “METHODS AND COMPOSITIONS FOR TREATING ACUTE MYELOID LEUKEMIA” (Sanford Burnham Prebys Medical Discovery Institute, priority 2021, published 2023).
Counter-ions that a name gives are not always drawn. Like-named read-outs stand apart in the source and are kept apart here.

Tests used:
[1] = molecular target: menin-MLL fusion protein interaction (Homo sapiens, UniProt O00255); settings: cited from earlier work
Aurora B = Aurora B (Homo sapiens, UniProt Q96GD4); settings: cited from earlier work
Sequence of Aurora B (Q96GD4 whole entry): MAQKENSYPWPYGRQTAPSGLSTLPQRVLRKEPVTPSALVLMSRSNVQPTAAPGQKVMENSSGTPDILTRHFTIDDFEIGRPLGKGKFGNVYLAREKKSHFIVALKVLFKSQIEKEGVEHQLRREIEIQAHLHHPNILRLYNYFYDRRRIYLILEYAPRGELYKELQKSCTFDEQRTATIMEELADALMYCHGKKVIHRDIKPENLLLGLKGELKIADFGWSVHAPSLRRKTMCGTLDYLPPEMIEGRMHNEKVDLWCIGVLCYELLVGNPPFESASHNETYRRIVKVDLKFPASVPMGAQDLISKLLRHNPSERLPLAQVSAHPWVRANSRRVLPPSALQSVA

quinone reductase-1 = settings: in mouse hepatoma cells; cited from earlier work
MCF-7 cells = settings: cited from earlier work
Colo205 = settings: proliferation; cited from earlier work
HCT116 = settings: proliferation; cited from earlier work
PI3K = settings: cited from earlier work
[2] = system: SK-BR-3 breast-derived cell line; settings: proliferation; cited from earlier work
U937 leukemia cell line = settings: proliferation; cited from earlier work
HT29 = settings: cited from earlier work
TNF-a = settings: control 325 pg/ml, cited from earlier work
BRD2, BRD3, and BRD4 = settings: cited from earlier work
DNMT3B = DNMT3B (Homo sapiens, UniProt Q9UBC3); settings: cited from earlier work
Aurora A = Aurora A (Homo sapiens, UniProt O14965); settings: cited from earlier work
Sequence of Aurora A (O14965 whole entry): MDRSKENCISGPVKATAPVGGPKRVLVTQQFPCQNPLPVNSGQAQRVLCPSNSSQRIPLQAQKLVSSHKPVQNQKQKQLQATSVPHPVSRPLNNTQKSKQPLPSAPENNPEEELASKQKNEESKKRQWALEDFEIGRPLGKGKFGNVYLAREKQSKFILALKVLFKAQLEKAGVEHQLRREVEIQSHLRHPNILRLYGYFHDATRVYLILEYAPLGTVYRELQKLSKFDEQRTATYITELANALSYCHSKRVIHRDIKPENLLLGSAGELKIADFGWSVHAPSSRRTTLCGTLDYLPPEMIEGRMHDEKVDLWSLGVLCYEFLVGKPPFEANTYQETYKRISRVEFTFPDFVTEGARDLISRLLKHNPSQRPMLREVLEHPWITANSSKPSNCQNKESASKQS

[3] = molecular target: HAT PCAF (p300/CREB-binding protein-associated factor) (Homo sapiens, UniProt Q92831); settings: cited from earlier work
Sequence of HAT PCAF (p300/CREB-binding protein-associated factor) (Q92831 whole entry): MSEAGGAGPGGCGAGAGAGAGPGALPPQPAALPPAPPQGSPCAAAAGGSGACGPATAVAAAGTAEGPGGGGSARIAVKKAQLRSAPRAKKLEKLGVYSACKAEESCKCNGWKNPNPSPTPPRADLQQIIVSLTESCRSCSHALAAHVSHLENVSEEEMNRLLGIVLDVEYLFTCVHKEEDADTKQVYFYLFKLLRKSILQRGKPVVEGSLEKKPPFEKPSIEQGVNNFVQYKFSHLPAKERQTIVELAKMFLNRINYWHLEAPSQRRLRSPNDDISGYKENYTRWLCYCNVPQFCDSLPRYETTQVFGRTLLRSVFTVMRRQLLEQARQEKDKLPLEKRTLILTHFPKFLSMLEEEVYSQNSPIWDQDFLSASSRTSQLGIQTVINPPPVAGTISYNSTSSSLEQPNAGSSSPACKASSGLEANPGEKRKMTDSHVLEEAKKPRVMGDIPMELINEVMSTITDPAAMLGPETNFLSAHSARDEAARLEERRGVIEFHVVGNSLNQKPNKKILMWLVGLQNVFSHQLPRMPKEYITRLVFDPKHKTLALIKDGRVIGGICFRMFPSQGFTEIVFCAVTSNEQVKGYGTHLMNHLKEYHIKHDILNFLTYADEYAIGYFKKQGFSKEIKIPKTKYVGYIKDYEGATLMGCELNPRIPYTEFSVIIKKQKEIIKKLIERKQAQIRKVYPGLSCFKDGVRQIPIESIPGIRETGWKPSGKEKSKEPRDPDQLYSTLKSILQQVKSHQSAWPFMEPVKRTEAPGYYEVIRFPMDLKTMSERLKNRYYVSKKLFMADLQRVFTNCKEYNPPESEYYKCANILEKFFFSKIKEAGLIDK

hERG ion-channel = hERG ion-channel (Homo sapiens, UniProt Q12809); settings: cited from earlier work
Aurora C = Aurora C (Homo sapiens, UniProt Q9UQB9); settings: cited from earlier work
Sequence of Aurora C (Q9UQB9 whole entry): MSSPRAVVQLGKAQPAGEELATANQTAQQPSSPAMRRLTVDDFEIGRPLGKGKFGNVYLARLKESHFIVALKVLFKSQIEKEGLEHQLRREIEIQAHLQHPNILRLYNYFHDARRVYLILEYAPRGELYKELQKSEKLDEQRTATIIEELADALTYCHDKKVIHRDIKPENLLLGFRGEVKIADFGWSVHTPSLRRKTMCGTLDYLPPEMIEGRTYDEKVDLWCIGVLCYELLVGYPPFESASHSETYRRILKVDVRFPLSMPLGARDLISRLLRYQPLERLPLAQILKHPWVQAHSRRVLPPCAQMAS

PAD3 = PAD3 (Homo sapiens, UniProt Q9ULW8); settings: cited from earlier work
Sequence of PAD3 (Q9ULW8 whole entry, species assumed): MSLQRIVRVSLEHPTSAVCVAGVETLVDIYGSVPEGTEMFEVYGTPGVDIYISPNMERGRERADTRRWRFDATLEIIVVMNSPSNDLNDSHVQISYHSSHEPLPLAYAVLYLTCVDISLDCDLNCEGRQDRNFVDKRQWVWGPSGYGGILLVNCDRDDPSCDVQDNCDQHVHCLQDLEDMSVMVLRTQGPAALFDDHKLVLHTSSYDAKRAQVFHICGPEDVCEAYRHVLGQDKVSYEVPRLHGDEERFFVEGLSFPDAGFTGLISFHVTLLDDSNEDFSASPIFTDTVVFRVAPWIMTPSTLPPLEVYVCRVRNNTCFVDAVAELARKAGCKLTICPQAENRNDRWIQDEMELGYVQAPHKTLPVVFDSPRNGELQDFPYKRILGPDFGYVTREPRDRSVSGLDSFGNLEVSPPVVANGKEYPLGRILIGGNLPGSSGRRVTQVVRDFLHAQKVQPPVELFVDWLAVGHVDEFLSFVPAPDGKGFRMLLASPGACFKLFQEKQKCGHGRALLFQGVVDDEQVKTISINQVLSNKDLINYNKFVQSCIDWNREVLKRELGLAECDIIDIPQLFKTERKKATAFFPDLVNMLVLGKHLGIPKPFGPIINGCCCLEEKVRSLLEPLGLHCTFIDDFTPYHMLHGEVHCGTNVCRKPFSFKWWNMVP

PAD1 = PAD1 (Homo sapiens, UniProt Q9ULC6); settings: cited from earlier work
HL-60 = settings: cytotoxic; cited from earlier work
Flt3 = Flt3 (Homo sapiens, UniProt P36888); settings: cited from earlier work
RET = RET (Homo sapiens, UniProt P07949); settings: cited from earlier work
maize HD1-A = settings: cited from earlier work
[4] = molecular target: HIF-1alpha prolyl hydroxylase-2 (PHD2) (Homo sapiens, UniProt Q9GZT9); settings: cited from earlier work
Sequence of HIF-1alpha prolyl hydroxylase-2 (PHD2) (Q9GZT9 whole entry, species assumed): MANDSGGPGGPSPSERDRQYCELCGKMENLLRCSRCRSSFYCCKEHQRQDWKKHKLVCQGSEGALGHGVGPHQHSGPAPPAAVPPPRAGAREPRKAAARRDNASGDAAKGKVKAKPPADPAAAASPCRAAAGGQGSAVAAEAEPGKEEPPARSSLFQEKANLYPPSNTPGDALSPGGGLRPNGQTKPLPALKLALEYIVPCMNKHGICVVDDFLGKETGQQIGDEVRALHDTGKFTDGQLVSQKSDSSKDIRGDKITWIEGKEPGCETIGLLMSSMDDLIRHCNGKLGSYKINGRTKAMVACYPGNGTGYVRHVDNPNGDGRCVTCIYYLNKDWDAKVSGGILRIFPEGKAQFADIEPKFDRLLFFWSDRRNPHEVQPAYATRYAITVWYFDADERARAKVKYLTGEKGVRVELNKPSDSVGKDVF

[5] = system: RhoA/C-mediated, SRF-driven luciferase expression in PCS prostate cancer cells; settings: cited from earlier work
MLL1 = MLL1 (Homo sapiens, UniProt Q03164); settings: cited from earlier work
SIRT1 = molecular target: T1, SIRT1 (Homo sapiens, UniProt Q96EB6); settings: cited from earlier work
T1 sequence (Q96EB6 1-747): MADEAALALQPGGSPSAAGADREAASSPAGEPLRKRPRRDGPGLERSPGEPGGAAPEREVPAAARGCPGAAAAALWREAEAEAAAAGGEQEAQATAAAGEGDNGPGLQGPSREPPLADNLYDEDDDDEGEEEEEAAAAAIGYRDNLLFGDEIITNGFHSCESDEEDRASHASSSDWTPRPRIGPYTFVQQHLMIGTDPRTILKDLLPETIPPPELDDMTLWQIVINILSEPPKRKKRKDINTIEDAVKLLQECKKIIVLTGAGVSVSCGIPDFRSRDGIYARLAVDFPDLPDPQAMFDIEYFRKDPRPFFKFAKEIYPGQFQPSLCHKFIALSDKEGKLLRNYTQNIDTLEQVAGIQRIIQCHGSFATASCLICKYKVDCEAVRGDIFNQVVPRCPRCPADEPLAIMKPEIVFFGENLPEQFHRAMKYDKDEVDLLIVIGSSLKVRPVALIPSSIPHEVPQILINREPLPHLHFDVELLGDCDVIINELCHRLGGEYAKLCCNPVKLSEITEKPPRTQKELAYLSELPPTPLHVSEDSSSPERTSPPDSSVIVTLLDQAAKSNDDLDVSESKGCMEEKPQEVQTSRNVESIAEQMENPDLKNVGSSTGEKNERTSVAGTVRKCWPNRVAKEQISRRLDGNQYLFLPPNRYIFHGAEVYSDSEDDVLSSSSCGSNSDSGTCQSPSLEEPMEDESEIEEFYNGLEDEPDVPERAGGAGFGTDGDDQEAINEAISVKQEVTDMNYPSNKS

[6] = system: metastatic breast cancer MDA-MB 231 cell; settings: cited from earlier work
MOLM-13 cells [7] = experiment: Viability/growth of MOLM-13 cells (CellTiter Glo); assay type: cell-based; settings: RNF5-KD versus control
HL-60 cells = experiment: Viability of HL-60 cells expressing pLKO or shRNF5; settings: for IC50: Homo sapiens, HL-60, 48 h
MOLM-13 cells [8] = experiment: Western blot of apoptotic markers; assay type: cell-based; settings: RNF5-KD versus control
[9] = system: U937 cells expressing an inducible shRNF5 vector; experiment: Small molecule epigenetic regulator screen; assay type: cell-based; settings: 0.5 μM or 5 μM, 6 days, +Dox versus −Dox
U937 cells = experiment: Viability/growth of U937 cells (CellTiter Glo); assay type: cell-based; settings: RNF5-KD U937, 24 h
PARP1 = PARP1 (Homo sapiens, UniProt P09874); settings: cited from earlier work
Sequence of PARP1 (P09874 whole entry, species assumed): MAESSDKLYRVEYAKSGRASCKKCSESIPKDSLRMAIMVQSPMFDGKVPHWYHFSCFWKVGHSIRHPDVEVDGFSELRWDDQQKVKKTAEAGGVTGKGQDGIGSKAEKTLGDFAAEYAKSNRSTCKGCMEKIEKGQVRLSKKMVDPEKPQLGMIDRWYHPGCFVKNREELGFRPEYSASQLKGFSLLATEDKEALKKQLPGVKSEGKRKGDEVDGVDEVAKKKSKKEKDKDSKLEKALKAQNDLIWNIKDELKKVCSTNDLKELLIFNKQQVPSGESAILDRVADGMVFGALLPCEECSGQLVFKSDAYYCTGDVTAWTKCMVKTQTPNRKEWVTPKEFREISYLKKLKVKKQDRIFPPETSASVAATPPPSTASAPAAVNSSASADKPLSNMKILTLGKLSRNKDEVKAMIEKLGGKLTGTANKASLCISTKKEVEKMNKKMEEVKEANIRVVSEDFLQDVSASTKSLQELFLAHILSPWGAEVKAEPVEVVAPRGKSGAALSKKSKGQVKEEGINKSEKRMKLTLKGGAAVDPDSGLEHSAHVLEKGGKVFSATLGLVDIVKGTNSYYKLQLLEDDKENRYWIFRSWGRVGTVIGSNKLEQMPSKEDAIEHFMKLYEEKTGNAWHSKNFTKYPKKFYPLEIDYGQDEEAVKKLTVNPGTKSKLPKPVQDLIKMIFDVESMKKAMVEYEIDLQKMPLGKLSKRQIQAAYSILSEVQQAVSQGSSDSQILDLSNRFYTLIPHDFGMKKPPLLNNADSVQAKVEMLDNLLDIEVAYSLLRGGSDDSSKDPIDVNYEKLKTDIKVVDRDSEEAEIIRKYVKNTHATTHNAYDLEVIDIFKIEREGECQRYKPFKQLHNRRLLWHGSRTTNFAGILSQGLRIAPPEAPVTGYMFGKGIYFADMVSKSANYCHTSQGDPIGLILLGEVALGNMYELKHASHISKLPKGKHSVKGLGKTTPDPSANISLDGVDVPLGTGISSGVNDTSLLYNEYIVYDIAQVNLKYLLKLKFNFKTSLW

BRD4 = BRD4 (Homo sapiens, UniProt O60885); settings: cited from earlier work
[10] = molecular target: nuclear receptor coactivator 3 (Homo sapiens, UniProt Q9Y6Q9); settings: cited from earlier work
SET7/9 = SET7/9 (Homo sapiens, UniProt Q8WTS6); settings: cited from earlier work
Sequence of SET7/9 (Q8WTS6 whole entry, species assumed): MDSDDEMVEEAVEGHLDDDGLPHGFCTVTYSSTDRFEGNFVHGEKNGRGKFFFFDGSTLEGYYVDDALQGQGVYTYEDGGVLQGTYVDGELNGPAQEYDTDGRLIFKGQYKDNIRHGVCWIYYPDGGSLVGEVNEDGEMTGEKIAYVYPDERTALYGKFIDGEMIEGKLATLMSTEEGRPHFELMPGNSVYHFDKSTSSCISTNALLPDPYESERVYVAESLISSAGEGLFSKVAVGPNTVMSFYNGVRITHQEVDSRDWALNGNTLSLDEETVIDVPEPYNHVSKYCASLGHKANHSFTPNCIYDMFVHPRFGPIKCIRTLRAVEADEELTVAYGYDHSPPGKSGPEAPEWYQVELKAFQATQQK

[11] = molecular target: O6-alkylguanine-DNA-alkyltransferase (Homo sapiens, UniProt P16455); settings: cited from earlier work
HDAC1A = settings: cited from earlier work
HDAC1B = settings: cited from earlier work

Sequence of menin-MLL fusion protein interaction (O00255 whole entry, the tested form may be a part): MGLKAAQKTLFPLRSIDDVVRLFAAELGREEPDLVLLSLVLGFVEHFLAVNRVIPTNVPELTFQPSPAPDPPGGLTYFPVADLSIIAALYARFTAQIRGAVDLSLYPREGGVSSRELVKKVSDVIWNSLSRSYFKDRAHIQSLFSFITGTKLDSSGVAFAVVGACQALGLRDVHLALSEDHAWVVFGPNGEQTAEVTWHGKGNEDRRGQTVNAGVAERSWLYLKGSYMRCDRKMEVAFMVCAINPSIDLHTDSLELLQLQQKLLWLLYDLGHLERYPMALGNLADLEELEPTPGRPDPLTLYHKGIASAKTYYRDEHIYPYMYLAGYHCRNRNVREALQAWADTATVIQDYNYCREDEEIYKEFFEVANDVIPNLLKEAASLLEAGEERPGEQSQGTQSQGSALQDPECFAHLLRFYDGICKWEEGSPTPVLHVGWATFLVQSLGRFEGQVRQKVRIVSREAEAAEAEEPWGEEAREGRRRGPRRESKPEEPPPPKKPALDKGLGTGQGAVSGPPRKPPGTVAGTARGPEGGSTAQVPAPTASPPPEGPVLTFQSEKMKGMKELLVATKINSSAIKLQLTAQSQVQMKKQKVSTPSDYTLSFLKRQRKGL

In the case of `CCc1cc2c(N3CCN(c4nncs4)CC3)ncnc2s1` [MI-nc (hydrochloride)], the IC50 [1] is listed as 193000 nM.

In the case of `CCS(=O)(=O)c1cccc(-c2cc(C(=O)NC3CCN(C)CC3)c(C)c3[nH]c4ncc(C)cc4c23)c1` [TAK-901], the IC50 (Aurora B) is given as 15 nM.

For `O=C(/C=C/c1ccc(O)cc1)c1ccc(O)cc1O` [Isoliquiritigenin], the “concentration required to double activity” value (quinone reductase-1) is listed as 1.8 μM in mouse hepatoma cells.

In the case of `Cc1cc(Nc2nn(-c3ccccc3)c(=O)c3ccccc23)n[nH]1` [Phthalazinone pyrazole], the IC50 (MCF-7 cells) is listed as 1600 nM, the IC50 (Colo205) is listed as 2900 nM and the IC50 (HCT116) is listed as 7800 nM.

For `COc1ccc(-c2nc(N3CCOCC3)c3sc(CN(C)c4ncc(C(=O)NO)cn4)cc3n2)cn1` [CUDC-907], the IC50 (PI3K) is listed as 19 nM.

In the case of `O=C(CCCCCCC(=O)Nc1ccc(I)cc1)NO` [4-iodo-SAHA], the EC50 [2] is given as 1100 nM, the EC50 (U937 leukemia cell line) is given as 120 nM and the EC50 (HT29; proliferation) is given as 950 nM.

In the case of `COCCCn1c(N)c(C(=O)NC2CCCC2)c2nc3ccccc3nc21` [CAY10591], the TNF-a levels (TNF-a; at 20 μM) is listed as 104 pg/mL and the TNF-a levels (TNF-a; at 60 μM) is listed as 53 pg/mL.

For `Cc1sc2c(c1C)C(c1ccc(Cl)cc1)=N[C@@H](CC(=O)Nc1ccc(O)cc1)c1nnc(C)n1-2` [OTX015], the EC50 (BRD2, BRD3, and BRD4) is listed as 10 to 19 nM.

In the case of `Cc1cc(Nc2ccc(NC(=O)c3ccc(Nc4ccnc5ccccc45)cc3)cc2)nc(N)n1` [SGI-1027], the IC50 (DNMT3B) is given as 7500 nM.

In the case of `CCN1CCN(C(=O)Cc2ccc(Nc3ncc(F)c(Nc4ccc(C(=O)Nc5ccccc5Cl)cc4)n3)cc2)CC1` [Aurora A Inhibitor I], the IC50 (Aurora A) is listed as 3.4 nM and the “fold selectivity for Aurora A than Aurora B” value (Aurora A) is listed as 1000 fold.

For `CCCCCOc1ccc(/C=C\c2cccc(O)c2C(=O)O)cc1` [CAY10669], the IC50 [3] is given as 662000 nM and the “fold improvement in inhibitory potency over anacardic acid” value [3] is given as 2 fold.

For `O=c1c(O)c(-c2ccc(O)c(O)c2)oc2cc(O)cc(O)c12` [Quercetin], the IC50 (PI3K) is listed as 2400 to 5400 nM.

In the case of `Cc1cc(CN2CCN(c3c(Br)cnc4nc(-c5ccc(N6CCN(C)CC6)cc5)[nH]c34)CC2)no1` [CCT137690], the “effect on hERG ion-channel” value (hERG ion-channel) is given as “nM. It has little effect on hERG ion-channel”, the IC50 (Aurora C) is given as 19 nM and the IC50 (Aurora B) is given as 25 nM.

In the case of `NC(=O)[C@H](CCCN=C(N)CF)NC(=O)c1ccccc1` [F-Amidine (trifluoroacetate salt), F-Amidine], the IC50 (PAD3) is given as 350000 nM, the IC50 (PAD1) is given as 29500 nM and the IC50 (MCF-7 cells) is given as 500 nM. For the same compound, the IC50 (HL-60) was 500 nM and the IC50 (HT29; cytotoxic) was 1000 nM.

For `Cc1cnc(Nc2ccc(N3CCN(C)CC3)cc2)nc1Nc1cccc(S(=O)(=O)NC(C)(C)C)c1` [TG101209], the IC50 (Flt3) is given as 25 nM and the IC50 (RET) is given as 17 nM.

For `Cn1cc(/C=C/C(=O)c2cccc(F)c2)cc1/C=C/C(=O)NO` [MC1568], the IC50 (maize HD1-A) is listed as 100 nM and the “fold more selective for HD1-A than HD1-B” value (maize HD1-A) is listed as 34 fold.

In the case of `O=C(O)CNC(=O)c1c(O)c2ccccc2n(Cc2ccccc2)c1=O` [IOX2], the IC50 [4] is listed as 21 nM and the “fold selectivity over JMJD2A, JMJD2C, JMJD2E, JMJD3, or FIH” value [4] is listed as > 100 fold.

In the case of `O=C(Nc1ccc(Cl)cc1)C1CCCN(C(=O)c2cc(C(F)(F)F)cc(C(F)(F)F)c2)C1` (stereo not shown) [CCG-100602], the IC50 [5] is listed as 9800 nM.

For `CC(C)c1cc2c(N3CCN(C4=NCC(C)(C)S4)CC3)ncnc2s1` [MI-3 (Menin-MLL Inhibitor)], the IC50 [1] is given as 648 nM.

In the case of `CCC(CC)(NC(=O)C(C)C)C(=O)N[C@@H](CCCN=C(N)N)C(=O)NC1(C(=O)NC(c2ccc(F)cc2)c2ccc(F)cc2)CCCC1` [MM-102], the IC50 (MLL1) is listed as 400 nM.

For `O=C(NCc1ccccc1)c1c(/N=C/c2c(O)ccc3ccccc23)sc2c1CCCC2` [JGB1741], the IC50 (SIRT1) is listed as 15000 nM and the IC50 [6] is listed as 512 nM.

For `CC(C)C[C@H](NC(=O)[C@H](Cc1ccccc1)NC(=O)c1cnccn1)B(O)O` [bortezomib], the viability (MOLM-13 cells [7]; BTZ 5 nM) was “decreased viability”, the IC50 (HL-60 cells; read-out: BTZ IC50, RNF5-KD cells (shRNF5), 48 h) was 5.4 nM and the IC50 (HL-60 cells; read-out: BTZ IC50, controls (pLKO), 48 h) was 9.6 nM. The “apoptotic markers (cleaved caspase-3, PARP)” value (MOLM-13 cells [8]; BTZ 5 nM) was “increased levels of apoptotic markers”.

With `CC(=O)Nc1ccc(C(=O)Nc2ccccc2N)cc1` [CI-994, N-acetyldinaline] the “viability of shRNF5-expressing cells relative to control WT RNF5 cells” value [9] was “decreased viability of shRNF5-expressing cells”, the “IC50 for CI-994 in terms of cell viability relative to control cells” value (U937 cells) was “lower IC50” and the “IC50 for CI-994 in terms of cell viability relative to control cells” value (HL-60 cells; RNF5-KD HL-60, 24 h) was “lower IC50”.

In the case of SNS-314 Mesylate, the IC50 (Aurora C) is listed as 3 nM.

For `CN(C)Cc1ccc(-c2nc3cccc4c3n2CCNC4=O)cc1` [AG-14361], the Ki (PARP1) is listed as < 5 nM and the “fold more potent than the benzamides” value (PARP1) is listed as “is at least 1000-fold more potent than the benzamides”.

In the case of `Cc1sc2c(c1C)C(c1ccc(Cl)cc1)=N[C@@H](CC(N)=O)c1nnc(C)n1-2` [CPI-203], the IC50 (BRD4) is given as 37 nM.

For `COc1cc([C@@H]2c3cc4c(cc3[C@@H](O[C@@H]3O[C@@H]5CO[C@@H](C)O[C@H]5[C@H](O)[C@H]3O)[C@H]3COC(=O)[C@H]23)OCO4)cc(OC)c1O` [Etoposide], the IC50 (MCF-7 cells; cell-based cytotoxicity assay) is given as 5.14 nM and the IC50 [10] is given as 2480 nM.

In the case of `Cl.O=C([C@@H](Cc1cccc(C(F)(F)F)c1)NS(=O)(=O)c1cc(F)c2c(c1)CCNC2)N1CCCC1` [(R)-PFI-2 (hydrochloride)], the IC50 (SET7/9) is given as 2 nM and the “fold selectivity over a panel of 18 other methyltransferases” value (SET7/9) is given as “nM) that demonstrates greater than 1,000-fold selectivity”.

In the case of `Nc1nc(OCc2cc(Br)cs2)c2[nH]cnc2n1` [Lomeguatrib], the IC50 [11] is listed as 5 nM.

In the case of `C/C=C(/C)C(=O)O[C@H]1C(C)=C2[C@H]([C@@H]1OC(=O)CCCCCCC)[C@@](C)(OC(C)=O)C[C@H](OC(=O)CCC)[C@@]1(O)[C@H]2OC(=O)[C@@]1(C)O` [Thapsigargin], the viability (MOLM-13 cells [7]; thapsigargin 100 nM) is reported as “decreased viability of MOLM-13 RNF5-KD cells to a greater extent” and the apoptotic markers (MOLM-13 cells [8]; thapsigargin 1 μM) is reported as “increased apoptotic markers to levels higher than those seen in control cells”.

For `CCN(CC)Cc1ccc2cc(COC(=O)Nc3ccc(C(=O)NO)cc3)ccc2c1` [Givinostat (ITF2357), Givinostat], the IC50 (HDAC1A) is given as 16 nM and the IC50 (HDAC1B) is given as 7.5 nM.
